Legend:
NK1 receptor = molecular target: T1, NK1 receptor (Cavia porcellus, UniProt P30547); assay: Antagonism of iodinated tachykinin (substance P) binding to NK1 receptors in guinea pig lungs; settings: read-out: NK1 Receptor Binding Affinity, IC50
T1 construct: as evaluated in guinea pig lungs (Keystone Biologicals, Cleveland, Ohio); tissue Keystone Biologicals, Cleveland, Ohio; host or cells: guinea pig lung membranes
Method: Antagonism of iodinated tachykinin binding to NK1 receptors by putative antagonists
One skilled in the art can measure the NK1 receptor affinity of proposed tachykinin antagonists as evaluated in guinea pig lungs (Keystone Biologicals, Cleveland, Ohio). Tissues or cells are homogenized with a Polytron in 15 volumes of 50 mM Tris-HCl buffer (pH 7.4, […]) and centrifuged. The pellet is resuspended in Tris-HCl buffer and centrifuged; the pellet is washed twice by resuspension. The final pellet is resuspended at a concentration of 40 mg/ml incubation buffer and remains at room temperature for at least 15 min prior to use. […] Incubations are performed at room temperature for 90 min; binding is terminated by addition of 50 mM Tris-HCl buffer (pH 7.4, […]) and filtration under vacuum through GF/B filters presoaked with 0.1% polyethyleneimine. Filter bound radioactivity is quantitated in a gamma counter. […] IC50 values (concentration required to inhibit 50% of receptor binding) are generated for each of the test compounds by nonlinear regression using an iterative curve fitting program (GraphPAD Inplot, San Diego, Calif.).

H1 receptor = molecular target: T2, H1 receptor (Cavia porcellus, UniProt P31389); assay: Histamine (H1) antagonism in guinea pig ileum; assay type: cell-based; settings: read-out: H1 Receptor Antagonism, pA2, in vitro (converted)
T2 construct: A piece of ileum, about 20 cm in length, is removed and cut into 2 cm pieces; from tissue; host or cells: ileum of male Hartley guinea pigs
T2 sequence (P31389 whole entry): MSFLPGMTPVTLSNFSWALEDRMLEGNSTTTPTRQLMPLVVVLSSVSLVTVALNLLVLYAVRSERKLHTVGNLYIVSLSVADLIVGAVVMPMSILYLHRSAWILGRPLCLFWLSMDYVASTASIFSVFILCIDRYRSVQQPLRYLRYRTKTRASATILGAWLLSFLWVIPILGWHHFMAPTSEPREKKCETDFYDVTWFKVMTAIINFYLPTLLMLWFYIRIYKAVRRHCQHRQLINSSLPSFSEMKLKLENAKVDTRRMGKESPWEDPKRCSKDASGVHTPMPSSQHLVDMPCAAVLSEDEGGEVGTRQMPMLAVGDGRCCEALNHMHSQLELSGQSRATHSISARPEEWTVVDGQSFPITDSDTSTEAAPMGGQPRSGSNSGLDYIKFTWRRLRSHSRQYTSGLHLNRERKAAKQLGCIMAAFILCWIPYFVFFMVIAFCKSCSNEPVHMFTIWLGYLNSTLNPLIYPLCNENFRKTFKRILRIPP
Method: Male Hartley guinea pigs, weighing 200-450 grams, are sacrificed by CO2 asphyxiation. A piece of ileum, about 20 cm in length, is removed and cut into 2 cm pieces. Each ileum piece is placed in an organ bath at 37° C. containing Tyrode's solution and is constantly aerated with 95% O2 /5%CO2. Tyrode's solution has the composition: NaCl 136.9 mM, KCl […], CaCl2 1.8 mM, NaH2 PO4 0.42 mM, NaHCO3 11.9 mM, and dextrose 5.55 mM. Contractions are measured with an isometric transducer (Grass FTO3C), and are recorded on a polygraph recorder and/or a computer. The ileum strips are loaded with 1.0 grams of tension and allowed to equilibrate for a minimum of 30 minutes before starting the experiments.
The potency of the antagonism is determined by the magnitude of the shift and is expressed as a pA2 value which is the negative logarithm of the molar concentration of antagonist which produces a two-fold shift of the dose response curve to the right. The pA2 value is calculated by using Schild analysis. O. Arunlakshana and H. O. Schild, Br. J. Pharmacol Chemother. 14, 48-58 (1958).
Table 1 presents pA2 values by the method of Example 93 which indicate potency of H1 receptor antagonism and IC50 values by the method of Example 95 which indicates NK1 receptor binding affinity for representative compounds of the present invention.

T1 sequence (P30547 whole entry): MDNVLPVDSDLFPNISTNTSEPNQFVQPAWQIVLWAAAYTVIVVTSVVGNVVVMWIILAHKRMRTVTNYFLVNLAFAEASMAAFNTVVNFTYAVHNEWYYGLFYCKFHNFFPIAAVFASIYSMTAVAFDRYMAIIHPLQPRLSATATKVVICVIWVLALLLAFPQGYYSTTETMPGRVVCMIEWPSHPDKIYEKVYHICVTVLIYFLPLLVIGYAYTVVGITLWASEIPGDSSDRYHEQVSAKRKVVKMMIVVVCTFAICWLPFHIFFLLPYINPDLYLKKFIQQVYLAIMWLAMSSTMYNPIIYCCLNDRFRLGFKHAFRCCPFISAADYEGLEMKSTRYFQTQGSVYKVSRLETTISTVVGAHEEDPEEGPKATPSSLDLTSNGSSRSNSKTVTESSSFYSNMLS

Structure (SMILES)	IC50 (NK1 receptor)	Kb (H1 receptor)
COc1cc(CN2CCC(CCN3CCC(O)(c4nc5ccccc5n4Cc4ccc(F)cc4)CC3)(Cc3ccccc3)C2=O)cc(OC)c1OC (centres unmarked) [Example 53, 1-(3,4,5-Trimethoxy-benzyl)-3-[2-[4-[1-(4-fluoro-benzyl)-1H-benzoimidazol-2-yl]-4-hydroxy-piperidin-1-yl]-ethyl]-3-(phenylmethyl)-2-oxo-pyrrolidine]	191 nM	204 nM
COc1cc(CN2CCC(CCN3CCC(O)(c4nc5ccccc5n4Cc4ccc(F)cc4)CC3)(Cc3ccc(Cl)c(Cl)c3)C2=O)cc(OC)c1OC (centres unmarked) [Example 54, 1-(3,4,5-Trimethoxy-benzvl)-3-[2-[4-[1-(4-fluoro-benzyl)-1H-benzoimidazol-2-yl]-4-hydroxy-piperidin-1-yl]-ethyl]-3-(3,4-dichloro-phenylmethyl)-2-oxo-pyrrolidine]	269 nM	479 nM
COc1ccc(CC2(CCN3CCC(O)(c4nc5ccccc5n4Cc4ccc(F)cc4)CC3)CCN(Cc3cc(OC)c(OC)c(OC)c3)C2=O)cc1OC (centres unmarked) [Example 55, 1-(3,4,5-Trimethoxy-benzyl)-3-[2-[4-[1-(4-fluoro-benzyl)-1H-benzoimidazol-2-yl]-4-hydroxy-piperidin-1-yl]-ethyl]-3-(3,4-dimethoxy-phenylmethyl)-2-oxo-pyrrolidine]	385 nM	912 nM
COc1cc(CN2CCC(CCN3CCC(O)(c4nc5ccccc5n4Cc4ccc(F)cc4)CC3)(Cc3ccc(F)cc3)C2=O)cc(OC)c1OC (centres unmarked) [Example 57, 1-(3,4,5-Trimethoxy-benzyl)-3-[2-[4-[1-(4-fluoro-benzyl)-1H-benzoimidazol-2-yl]-4-hydroxy-piperidin-1-yl]-ethyl]-3-(4-fluoro-phenylmethyl)-2-oxo-pyrrolidine]	114 nM	155 nM

Results, then the molecule that gave them:

IC50 (NK1 receptor)	Kb (H1 receptor)	Structure (SMILES)
17 nM	25.1 nM	COc1cc(C(=O)N2CCC(CCN3CCC(C(=O)c4nc5ccccc5n4Cc4ccccn4)CC3)(c3ccccc3)C2)cc(OC)c1OC (centres unmarked) [Example 37, 1-(3,4,5-Trimethoxy-benzoyl)-3-[2-[4-[1-(pyrid-2-ylmethyl)-1 H-benzoimidazole-2-carbonyl]-piperidin-1-yl]-ethyl]-3-phenyl-pyrrolidine]
29 nM	891 nM	COc1cc(C(=O)N2CCC(CCN3CCC(C(=O)c4nc5ccccc5n4Cc4ccc(C(=O)O)cc4)CC3)(c3ccccc3)C2)cc(OC)c1OC (centres unmarked) [Example 39, 1-(3,4,5-Trimethoxy-benzoyl)-3-[2-[4-[1-(4-carboxy-benzyl)-1 H-benzoimidazole-2-carbonyl]-piperidin-1-yl]-ethyl]-3-phenyl-pyrrolidine]
24 nM	41.7 nM	CCOCCn1c(C(=O)C2CCN(CCC3(c4ccccc4)CCN(C(=O)c4cc(OC)c(OC)c(OC)c4)C3)CC2)nc2ccccc21 (centres unmarked) [Example 40, 1-(3,4,5-Trimethoxy-benzoyl)-3-[2-[4-[1-(2-ethoxy-ethyl)-1 H-benzoimidazole-2-carbonyl]-piperidin-1-yl]-ethyl]-3-phenyl-pyrrolidine]
48 nM	6760 nM	COc1ccc(C2(CCN3CCC(C(=O)c4nc5ccccc5n4Cc4ccc(C(=O)O)cc4)CC3)CCN(C(=O)c3cc(OC)c(OC)c(OC)c3)C2)cc1OC (centres unmarked) [Example 43]
13 nM	63.1 nM	COc1cc(C(=O)N2CCC(CCN3CCC(C(=O)c4nc5ccccc5n4Cc4ccco4)CC3)(c3ccccc3)C2)cc(OC)c1OC (centres unmarked) [Example 44, 1-(3,4,5-Trimethoxy-benzoyl)-3-[2-[4-[1-(fur-2-ylmethyl)-1 H-benzoimidazole-2-carbonyl]-piperidin-1-yl]-ethyl]-3-phenyl-pyrrolidine]
9 nM	35.5 nM	COc1cc(C(=O)N2CCC(CCN3CCC(C(=O)c4nc5ccccc5n4CCOCc4ccco4)CC3)(c3ccccc3)C2)cc(OC)c1OC (centres unmarked) [Example 45, 1-(3,4,5-Trimethoxy-benzoyl)-3-[2-[4-[1-(2-fur-2-ylmethoxy-ethyl)-1 H-benzoimidazole-2-carbonyl]-piperidin-1-yl]-ethyl]-3-phenyl-pyrrolidine]

From patent US6329392A, “Substituted piperidines useful for the treatment of allergic diseases” (Aventis Pharmaceuticals, Inc., priority 1998, dated 2001)
